Reference: ChEMBL document CHEMBL3769376, “Discovery of I-BRD9, a Selective Cell Active Chemical Probe for Bromodomain Containing Protein 9 Inhibition” (J Med Chem, 2016)
Calls of active or inactive are those of the source. No cut-off for these calls is given here.

Assays:
[1] = target: Bromodomain-containing protein 4 (Homo sapiens, UniProt O60885); test: Inhibition of BRD4 bromodomain 1 (unknown origin) incubated in dark for 30 mins by TR-FRET assay
[2] = target: T1, Bromodomain-containing protein 9 (Homo sapiens, UniProt Q9H8M2); test: Inhibition of BRD9 (unknown origin) incubated in dark for 30 mins by TR-FRET assay
T1 sequence (Q9H8M2 whole entry): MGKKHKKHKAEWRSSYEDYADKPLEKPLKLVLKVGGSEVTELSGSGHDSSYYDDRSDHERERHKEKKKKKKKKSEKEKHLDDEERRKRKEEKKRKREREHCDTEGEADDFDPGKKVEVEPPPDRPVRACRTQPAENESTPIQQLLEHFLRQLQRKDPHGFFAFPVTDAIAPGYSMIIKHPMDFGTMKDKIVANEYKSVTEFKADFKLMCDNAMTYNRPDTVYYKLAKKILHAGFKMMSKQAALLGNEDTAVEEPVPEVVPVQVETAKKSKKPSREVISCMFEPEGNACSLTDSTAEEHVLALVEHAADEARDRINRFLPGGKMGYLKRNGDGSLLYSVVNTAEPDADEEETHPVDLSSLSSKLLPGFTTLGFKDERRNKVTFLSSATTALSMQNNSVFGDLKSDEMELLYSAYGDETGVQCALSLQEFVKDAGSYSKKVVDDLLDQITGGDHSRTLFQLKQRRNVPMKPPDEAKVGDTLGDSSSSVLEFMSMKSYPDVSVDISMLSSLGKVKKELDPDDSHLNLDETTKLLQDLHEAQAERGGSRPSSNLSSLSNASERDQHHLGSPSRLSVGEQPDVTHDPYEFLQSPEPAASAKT

[3] = target: T2, Bromodomain-containing protein 9 (Homo sapiens) (UniProt Q9H8M2); test: Inhibition of BRD9 in human Kasumi-1 cells assessed as downregulation of CLEC1 gene at 1 uM after 6 hrs by qPCR method; format: cell-based
T2 sequence (whole entry): T1 sequence (Q9H8M2 whole entry)

[4] = target: T2, Bromodomain-containing protein 9 (Homo sapiens); test: Inhibition of BRD9 in human Kasumi-1 cells assessed as downregulation of SAMSN1 gene at 1 uM after 6 hrs by qPCR method; format: cell-based
[5] = target: T2, Bromodomain-containing protein 9 (Homo sapiens); test: Inhibition of BRD9 in human Kasumi-1 cells assessed as downregulation of DUSP6 gene at 1 uM after 6 hrs by qPCR method; format: cell-based
[6] = target: T2, Bromodomain-containing protein 9 (Homo sapiens); test: Inhibition of BRD9 in human Kasumi-1 cells assessed as downregulation of FES gene at 1 uM after 6 hrs by qPCR method; format: cell-based
[7] = Dissociation constant, pKa of the compound; format: physicochemical

| SMILES | IC50 [1] | IC50 [2] | further results |
| --- | --- | --- | --- |
| CNC(=N)c1cc2c(=O)n(C)cc(-c3ccc(OC)c(OC)c3)c2s1 | 1260 nM | 79.4 nM | – |
| COc1ccc(-c2cn(C)c(=O)c3cc(C(=O)N4CCN(S(C)(=O)=O)CC4)sc23)cc1OC | 20000 nM | 200 nM | – |
| COc1ccc(-c2cn(C)c(=O)c3cc(C(=O)NC4CCS(=O)(=O)CC4)sc23)cc1OC | 50.1 nM | 12.6 nM | – |
| COc1cc2c(cc1-c1c(C)noc1C)ncc1[nH]c(=O)n([C@H](C)c3ccccn3)c12 | – | – | inhibition [3]: inactive; inhibition [4]: inactive; inhibition [5]: inactive; inhibition [6]: inactive |
| COc1ccc(-c2cn(C)c(=O)c3cc(C(=O)N(C)C)sc23)cc1OC | 12600 nM | 5010 nM | – |
| CNC(=O)c1cc2c(=O)n(C)cc(-c3ccc(OC)c(OC)c3)c2s1 | 200 nM | 126 nM | – |
| COc1ccc(-c2cn(C)c(=O)c3cc(C(=O)N4CCCCC4)sc23)cc1OC | 15800 nM | 3980 nM | – |

Second part, led by results:

| IC50 [1] | IC50 [2] | SMILES | further results |
| --- | --- | --- | --- |
| > 50100 nM | 3160 nM | CC(C)n1cc(-c2cccc(C(F)(F)F)c2)c2sc(C(=N)NC3CCS(=O)(=O)CC3)cc2c1=O | – |
| 1580 nM | 39.8 nM | Cn1cc(-c2ccccc2)c2sc(C(=N)NC3CCS(=O)(=O)CC3)cc2c1=O | – |
| 2510 nM | 39.8 nM | Cn1cc(-c2cccc(C#N)c2)c2sc(C(=N)NC3CCS(=O)(=O)CC3)cc2c1=O | – |
| 2510 nM | 15.8 nM | Cn1cc(-c2cccc(C(F)(F)F)c2)c2sc(C(=N)NC3CCS(=O)(=O)CC3)cc2c1=O | pKa [7]: 8.4 |
| 501 nM | 10 nM | CN(C)c1cccc(-c2cn(C)c(=O)c3cc(C(=N)NC4CCS(=O)(=O)CC4)sc23)c1 | – |
| 794 nM | 12.6 nM | COc1cccc(-c2cn(C)c(=O)c3cc(C(=N)NC4CCS(=O)(=O)CC4)sc23)c1 | – |
| 398 nM | 7.94 nM | COc1ccc(-c2cn(C)c(=O)c3cc(C(=N)NC4CCS(=O)(=O)CC4)sc23)cc1OC | – |
